This note sets out measurements from patent US5795907A, “Gastin and CCK receptor ligands” (James Black Foundation Limited, priority 1994, dated 1998).

Where only a bound is given, the exact number is not on record here.

For one assay, the target named is T1, CCKB receptor (Mus musculus, UniProt P56481).
T1 construct: The cortex was dissected, weighed and homogenised in 40ml ice-cold buffer; tissue Charles River (supplier of the CD1 mice); host or cells: cerebral cortex membranes of male CD1 mice
T1 sequence (P56481 1-453): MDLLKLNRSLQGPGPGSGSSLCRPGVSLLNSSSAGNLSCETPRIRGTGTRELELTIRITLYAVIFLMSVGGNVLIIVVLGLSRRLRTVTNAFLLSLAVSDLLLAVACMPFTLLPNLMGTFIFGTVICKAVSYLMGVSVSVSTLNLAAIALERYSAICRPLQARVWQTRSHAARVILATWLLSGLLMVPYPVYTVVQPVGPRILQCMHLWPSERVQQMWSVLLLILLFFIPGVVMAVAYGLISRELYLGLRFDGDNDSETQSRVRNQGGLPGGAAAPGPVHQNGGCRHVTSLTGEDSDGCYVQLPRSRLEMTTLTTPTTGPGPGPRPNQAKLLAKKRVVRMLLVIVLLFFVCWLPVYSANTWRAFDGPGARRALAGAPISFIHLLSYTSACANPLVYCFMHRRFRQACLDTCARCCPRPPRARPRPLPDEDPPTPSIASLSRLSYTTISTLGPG
The assay is described as follows: CCKB receptor radioligand binding assay in mouse cortical membranes ([125I]-CCK8S). Conditions: [125I]-CCK8S 200 pM, 150 min at 21±3°; for Ki: read-out: CCKB pKi (converted). Put shortly:
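Cortical membranes from male CD1 mice in HEPES buffer (pH 7.2; NaCl, KCl, MgCl2, EDTA, bacitracin) were incubated with competing compound and [125I]-CCK8S (added as a 200 pM solution) for 150 min at 21±3°. Non-specific binding was defined with L-365,260. Bound tracer was separated by GF/B filtration and counted by gamma counting.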

A further assay concerns the target T2, gastrin (Rattus norvegicus, UniProt P30553).
T2 construct: The stomach was lowered into a jacketed organ bath containing 40 ml of buffered solution; from tissue; host or cells: isolated perfused whole stomach of immature rats (ca. 21 days old)
T2 sequence (P30553 1-452): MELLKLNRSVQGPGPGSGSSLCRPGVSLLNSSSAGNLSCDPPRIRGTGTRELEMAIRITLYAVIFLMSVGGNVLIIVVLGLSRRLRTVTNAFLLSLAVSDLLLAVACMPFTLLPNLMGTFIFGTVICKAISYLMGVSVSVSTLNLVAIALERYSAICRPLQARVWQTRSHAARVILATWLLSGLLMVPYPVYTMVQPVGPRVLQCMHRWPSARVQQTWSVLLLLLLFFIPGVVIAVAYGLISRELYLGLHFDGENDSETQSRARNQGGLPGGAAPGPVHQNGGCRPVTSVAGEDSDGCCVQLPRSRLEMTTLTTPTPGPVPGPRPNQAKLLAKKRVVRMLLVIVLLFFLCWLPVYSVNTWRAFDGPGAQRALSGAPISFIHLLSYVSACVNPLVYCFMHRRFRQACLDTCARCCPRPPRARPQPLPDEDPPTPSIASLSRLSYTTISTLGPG
The assay is described as follows: gastrin antagonist activity in an immature rat stomach assay (pentagastrin-stimulated acid secretion). Particulars: cumulative pentagastrin dose-response curves after 60 min with drug; for Kb: read-out: Gastrin pKB (converted). Put shortly:
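Isolated lumen-perfused immature rat stomach (33-50 g, ca. 21 days) in 37° organ bath with 3×10^-8 M 5-methylfurmethide; acid secretion read by pH electrode in perfusate. Compound added to serosal bath after 120 min stabilisation; cumulative pentagastrin dose-response curves begun 60 min later and analysed by the Black et al. method.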

A further assay concerns the target T3, CCKA (Cavia porcellus, UniProt Q63931).
T3 construct: The pancreatata were homogenised in 40 ml ice-cold HEPES buffer using a polytron; from tissue; host or cells: pancreas membranes of male Dunkin Hartley guinea-pigs
T3 sequence (Q63931 1-430): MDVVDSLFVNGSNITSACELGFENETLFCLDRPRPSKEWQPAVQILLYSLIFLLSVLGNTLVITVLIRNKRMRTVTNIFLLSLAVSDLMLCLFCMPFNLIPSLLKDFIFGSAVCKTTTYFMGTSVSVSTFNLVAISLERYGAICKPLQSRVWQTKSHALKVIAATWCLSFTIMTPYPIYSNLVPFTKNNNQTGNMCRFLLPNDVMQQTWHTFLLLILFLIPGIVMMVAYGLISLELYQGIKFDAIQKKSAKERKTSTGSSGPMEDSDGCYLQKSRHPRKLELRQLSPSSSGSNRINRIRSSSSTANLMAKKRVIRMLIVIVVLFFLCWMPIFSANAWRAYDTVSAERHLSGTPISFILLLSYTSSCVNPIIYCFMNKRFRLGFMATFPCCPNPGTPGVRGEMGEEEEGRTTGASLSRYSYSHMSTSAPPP
The experiment in a line: CCKA radioligand binding assay in guinea-pig pancreas membranes ([125I]-CCK8(S)). Conditions: PD134,308 present, 150 minutes at 21±3°; for Ki: read-out: CCKA pKi (converted). Put shortly:
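Male guinea-pig pancreas membranes (1 mg/ml wet tissue in HEPES pH 7.2, suspension containing 0.375 μM PD134,308) were incubated 150 min at 21±3° with [125I]-CCK8(S) ([…] added solution) and competitor. Non-specific binding used 100 nM L-364,718 (added solution). Bound radioligand was measured by GF/B filtration and gamma counting.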

On to “5-(1S-(3,5-dicarboxyphenylaminocarbonyl)-ethylaminocarbonyl)-6-(cycloheptanemethylaminocarbonyl)-indole and regioisomer with substituents at positions 5 and 6 reversed [Example 58]”, for which the “CCKB pKi” value at CCKB receptor was 6.5. Moreover, the “Gastrin pKB” value at gastrin came to 7.5. For the same compound, on CCKA, the “CCKA pKi” value came out at 5.0.

For “5-(1S-(3-methoxycarbonyl-5-carboxy-phenylaminocarbonyl)-2-phenylethylaminocarbonyl)-6-(1-adamantanemethylaminocarbonyl)-indole and regioisomer with substituents at positions 5 and 6 reversed [Example 40]”, the “CCKB pKi” value at CCKB receptor came to 6.8. The “Gastrin pKB” value at gastrin was found to be 7.3. Moreover, the “CCKA pKi” value on CCKA came out at 6.3.

Consider “5-(1S-(3-methoxycarbonyl-5-pivaloyloxymethyloxycarbonyl-phenylaminocarbonyl)-2-phenylethylaminocarbonyl)-6-(1-adamantanemethylaminocarbonyl)-indole and regioisomer with substituents at positions 5 and 6 reversed [Example 39]”, for which the “CCKB pKi” value at CCKB receptor came to 6.4. Also, on gastrin, the “Gastrin pKB” value is listed as 6.8. The “CCKA pKi” value at CCKA came to 4.9.

As to “5-(1S-(trans 3,4-dicarboxypyrrolidinocarbonyl)-2-phenylethylaminocarbonyl)-6-(1-adamantanemethylaminocarbonyl)-indole and regioisomer with substituents at positions 5 and 6 reversed [Example 50]”, the “CCKB pKi” value on CCKB receptor is given as 6.6. At gastrin, the “Gastrin pKB” value was determined as 6.9. In addition, the “CCKA pKi” value on CCKA came out at 6.1.

With “5-(2R-(1R-carboxyethylaminocarbonyl)pyrrolidinocarbonyl)-6-(1-adamantanemethylaminocarbonyl)-indole [Example 89]”, the “CCKB pKi” value at CCKB receptor is given as 6.2. The “Gastrin pKB” value at gastrin is listed as 6.8. Also, the “CCKA pKi” value at CCKA came to 5.1.

Take `O=C(O)c1cc(NC(=O)[C@H](Cc2ccccc2)NC(=O)C2Cc3[nH]cnc3CN2C(=O)NCC23CC4CC(CC(C4)C2)C3)cc(C(=O)O)c1` (mixture of isomers) [Example 126, (±)-6-(1S-(3,5-dicarboxyphenylaminocarbonyl)-2-phenylethylaminocarbonyl)-5-(1-adamantanemethylaminocarbonyl)-4,5,6,7-tetrahydro-5-aza-benzimidazole]: the Ki is 501 nM on CCKB receptor and 5010 nM on CCKA. Besides, on gastrin, the Kb was 100 nM.

Consider `O=C(O)c1cc(NC(=O)C(Cc2ccc(F)cc2F)NC(=O)c2cc3[nH]cnc3cc2C(=O)NCC23CC4CC(CC(C4)C2)C3)cc(C(=O)O)c1` (racemic) [Example 85, (±)-5-(1-(3,5-dicarboxyphenylaminocarbonyl)-2-(2,4-difluorophenyl)ethylaminocarbonyl)-6-(1-adamantanemethylaminocarbonyl)-benzimidazole], for which the Ki is 5.01 nM on CCKB receptor and 3160 nM on CCKA. Moreover, on gastrin, the Kb is 1.26 nM.

As to `O=C(O)c1cc(NC(=O)C(Cc2c(F)c(F)c(F)c(F)c2F)NC(=O)c2cc3[nH]cnc3cc2C(=O)NCC23CC4CC(CC(C4)C2)C3)cc(C(=O)O)c1` (racemic) [Example 136, (±)-5-(1-(3,5-dicarboxyphenylaminocarbonyl)-2-pentafluorophenylethylaminocarbonyl)-6-(1-adamantanemethylaminocarbonyl)-benzimidazole], the Ki was 1.26 nM at CCKB receptor and greater than 10000 nM on CCKA. Besides, the Kb on gastrin was 0.316 nM.

As to `O=C(O)c1cc(NC(=O)[C@H](Cc2ccccc2)NC(=O)c2cc3cc[nH]c3cc2C(=O)NCC2CCC(O)CC2)cc(C(=O)O)c1` (single isomer, unassigned) [Example 109, 5-(1S-(3,5-dicarboxyphenylaminocarbonyl)-2-phenylethylaminocarbonyl)-6-(4-hydroxycyclohexanemethylaminocarbonyl)-indole], the Ki is 200 nM at CCKB receptor and greater than 10000 nM on CCKA. Besides, at gastrin, the Kb was 126 nM.

Consider `O=C(O)c1cc2ccccc2cc1C(=O)NCC12CC3CC(CC(C3)C1)C2` [Example 1, 3-(1-adamantanemethylaminocarbonyl)-2-naphthoic acid], for which the Ki was 3160 nM at CCKB receptor and 7940 nM on CCKA. In addition, the Kb at gastrin was 1580 nM.

In the case of `COC(=O)[C@H](C)NC(=O)c1cc2ccccc2cc1C(=O)NCC12CC3CC(CC(C3)C1)C2` [Example 2, 2-(1S-methoxycarbonyl-ethylaminocarbonyl)-3-(1-adamantanemethylaminocarbonyl)-naphthalene], the Ki at CCKB receptor is 3160 nM; at CCKA it was 12600 nM. Further, the Kb on gastrin was 1000 nM.

`O=C(NCC12CC3CC(CC(C3)C1)C2)c1cc2ccccc2cc1C(=O)N1CCC[C@@H]1C(=O)O` [Example 3, 3-(2R-carboxypyrrolidino-carbonyl)-2-(1-adamantanemethylaminocarbonyl)-naphthalene]: the Ki on CCKB receptor is 398 nM; at CCKA, 3160 nM. The Kb on gastrin was 200 nM.

Consider `O=C(NCC12CC3CC(CC(C3)C1)C2)c1cc2ccccc2cc1C(=O)N1CCC[C@H]1C(=O)O` [Example 4, 2-(2S-carboxypyrrolidino-carbonyl)-3-(1-adamantanemethylaminocarbonyl)-naphthalene], for which the Ki was 3160 nM on CCKB receptor and 3980 nM at CCKA. For the same compound, the Kb at gastrin was 501 nM.

As to `C[C@@H](NC(=O)c1cc2ccccc2cc1C(=O)NCC12CC3CC(CC(C3)C1)C2)C(=O)O` [Example 5, 2-(1R-carboxyethylamino-carbonyl)-3-(1-adamantanemethylaminocarbonyl)-naphthalene], the values for the Ki on CCKB receptor and on CCKA were 1000 nM and 6310 nM, respectively. Further, the Kb on gastrin was 158 nM.

Take `COC(=O)[C@H]1CCCN1C(=O)c1cc2ccccc2cc1C(=O)NCC12CC3CC(CC(C3)C1)C2` [Example 7, 2-(2R-methoxycarbonylpyrrolidino-carbonyl)-3-(1-adamantanemethylaminocarbonyl)-naphthalene]: the Ki at CCKB receptor and at CCKA was 1580 nM each time. At gastrin, the Kb is 398 nM.

For `COC(=O)[C@@H](C)NC(=O)c1cc2ccccc2cc1C(=O)NCC12CC3CC(CC(C3)C1)C2` [Example 8, 2-(1R-methoxycarbonylethylamino-carbonyl)-3-(1-adamantanemethylaminocarbonyl)-naphthalene], the results for the Ki at CCKB receptor and at CCKA were 5010 nM and 1000 nM, respectively. For the same compound, the Kb at gastrin is 1260 nM.
